The values that follow come from patent publication US20100184601A1, “Method and Means Relating to Multiple Herbicide Resistance in Plants” (University of Durham, priority 2007, published 2010).

This experiment has as its system AmGSTL1. In words: Effect of inhibitors on activity of recombinant black-grass AmGSTL (thiol transferase). The class given is biochemical, black-grass (Alopecurus myosuroides). As to conditions: 0.1 mM inhibitor; recombinant enzyme.

For the molecule `O=C1O/C(=C/Br)CCC1c1cccc2ccccc12` (stereo not shown) [BEL, Bromoenol lactone], the “inhibition of AmGSTL1 activity” value is listed as “totally inhibited”.
